Where two headings read alike, the source gives them in different places.
Legend:
[1] = room temperature; cited from earlier work
[2] = type: physicochemical; details: nonylphenol
Protocol: From the group of the phenols as defined above and substituted by aliphatic radicals, those are advantageously selected for the use according to the invention, whose melting point is below 90° C., preferably below 50° C. and especially below 20°-30° C. A low melting point of the phenol derivatives used allows the process to be carried out at correspondingly low temperatures, which has a very favorable effect on the partition coefficient KD. KD is defined as follows: [formula]
The phases were then allowed to settle and were separated, and the concentration of NMP in the two phases was determined.
After the phases had been allowed to settle, these were separated, and the concentration of NMP in the two phases was determined.
Thereupon, the phases were allowed to settle and were separated, and the concentration of NMP in the two phases was determined.
[…] After the phases had been allowed to settle, these were separated, and the concentration of NMP in the two phases was determined.

[3] = Example 1a, feed 35% NMP, phase volume ratio 1:4, room temperature
[4] = Example 1b, feed 35% NMP, phase volume ratio 1:6, room temperature
[5] = Example 1c, feed 35% NMP, phase volume ratio 1:10, room temperature
[6] = Example 1e, feed 33% NMP, phase ratio 1:2, 70° C.
[7] = Example 1f, feed 33% NMP, phase volume ratio 1:10, 70° C.
[8] = Example 1d, feed 9% NMP, phase volume ratio 1:1, room temperature

SMILES | solubility in water [1] | Aqueous raffinate phase (% by weight of NMP) [2, 3] | Organic extract phase (% by weight of NMP) [2, 3] | Aqueous raffinate phase (% by weight of NMP) [2, 4] | Organic extract phase (% by weight of NMP) [2, 4] | Aqueous raffinate phase (% by weight of NMP) [2, 5] | Organic extract phase (% by weight of NMP) [2, 5] | Aqueous raffinate phase (% by weight of NMP) [2, 6] | Organic extract phase (% by weight of NMP) [2, 6] | Aqueous raffinate phase (% by weight of NMP) [2, 7] | Organic extract phase (% by weight of NMP) [2, 7] | Aqueous raffinate phase (% by weight of NMP) [2, 8] | Organic extract phase (% by weight of NMP) [2, 8]
Cc1cccc(O)c1 [m-cresol] | 2.3 % by weight |  |  |  |  |  |  |  |  |  |  |  | 
CN1CCCC1=O [NMP, N-methyl-2-pyrrolidone] |  | 0.75 % by weight | 8.2 % by weight | 0.30 % by weight | 5.8 % by weight | 0.12 % by weight | 3.4 % by weight | 9.0 % by weight | 12.4 % by weight | 1.0 % by weight | 3.4 % by weight | 0.64 % by weight | 8.3 % by weight
Cc1cc(C)cc(O)c1 [3,5-dimethylphenol] | 0.49 % by weight |  |  |  |  |  |  |  |  |  |  |  | 

— patent US5068358A, “Process for extracting N-methyl-2-pyrrolidone” (Hoechst Aktiengesellschaft, priority 1988, dated 1991)
